# Results taken from patent publication US20220323594A1, “LIPIDATED CATIONIC PEPTIDE-PEG COMPOSITIONS FOR NUCLEIC ACID DELIVERY” (NUTCRACKER THERAPEUTICS, INC., priority 2019, published 2022).
# Read-outs that look alike come from different tables or passages of the source.
# Key:
# [1] = Dynamic light scattering (DLS) of mRNA/peptoid formulations: particle size and polydispersity; format: physicochemical; settings: Fluc mRNA/peptoid formulation; for Size PDI: size polydispersity index by DLS, 5:1 mass ratio; for Size (nm): volume average particle size/diameter by DLS, 5:1 mass ratio peptoid:cargo
# Protocol: (§1) To prepare nanoparticle formulations, the amino lipidated peptoid is mixed by pipetting with nucleic acid at a mass ratio between approximately 1:1 (peptoid:cargo) and 20:1. Prior to formulation, amino lipidated peptoid and nucleic acid cargo were diluted in ethanol and acidic buffer (PBS adjusted to pH 5.5 with 0.1 M HCl) respectively to a volume ratio of 1:3 and to target a final cargo concentration of approximately 0.05 mg/mL to 0.2 mg/mL. The exemplary amino lipidated cationic peptoids described in Example 2 were combined with firefly luciferase (Fluc) mRNA to form nanoparticle compositions to be evaluated for therapeutic and/or prophylactic purposes in vitro or in vivo. The formulations were prepared according to the protocol of Example 3 and mixed by simple pipetting. The mRNA/peptoid formulation at a 5:1 mass ratio of peptoid:cargo were evaluated by dynamic light scattering (DLS) in order to determine the volume average particle size/diameter (nm) of the mRNA/peptoid complex and the size polydispersity index (PDI) within the formulation. The percentage of mRNA encapsulation for each formulation of the exemplary compounds were determined by fluorescence of the Qubit RNA HS (Invitrogen) dye before and after lysis of particles by Triton X-100.
# [2] = mRNA encapsulation by fluorescence of Qubit RNA HS dye before and after lysis with Triton X-100; format: physicochemical; settings: percentage of mRNA encapsulation; Fluc mRNA/peptoid formulation, 5:1 mass ratio
# Protocol: as §1, with “The” for “To prepare nanoparticle formulations, the amino lipidated peptoid is mixed by pipetting with nucleic acid at a mass ratio between approximately 1:1 (peptoid:cargo) and 20:1. Prior to formulation, amino lipidated peptoid and nucleic acid cargo were diluted in ethanol and acidic buffer (PBS adjusted to pH 5.5 with 0.1 M HCl) respectively to a volume ratio of 1:3 and to target a final cargo concentration of approximately 0.05 mg/mL to 0.2 mg/mL. The”
# HeLa cells [3] = assay: In vitro expression of firefly luciferase (Fluc) after treatment with Fluc mRNA/amino lipidated peptoid formulations, no PEG or 2% DMG-PEG2000; format: cell-based
# Protocol: The efficacy of mRNA/amino lipidated peptoid formulations was evaluated in vitro based on their ability to deliver the firefly luciferase (Fluc) reporter gene to cultured cells. Amino lipidated peptoids were combined with Fluc mRNA at a 5:1 w/w ratio, and the resulting particles were added to cultured HeLa cells at a dose of 100 ng/well (in 100 μL total volume). The resulting luciferase expression (RLU) was measured by a luminescence plate reader after 6 hours and 24 hours of treatment. […] In addition to evaluating nanoparticle complexes formed between mRNA cargos and amino lipidated peptoids alone, multicomponent formulations containing a small amount of PEG-lipid DMG-PEG2000 were also tested for in vitro Fluc mRNA delivery. In these formulations, DMG-PEG2000 was pre-mixed with candidate peptoid at an overall 2% incorporation (w/w), while maintaining the same 5:1 mass ratio of peptoid:mRNA used previously.
# HeLa cells [4] = assay: In vitro Fluc expression with variable peptoid:mRNA mass ratio, 2% DMG-PEG2000; format: cell-based; settings: 24 h; for Observed Luciferase Expression (RLU) for Given Formulation Mass Ratio 2:1: 2% (w/w) DMG-PEG2000, peptoid:mRNA 2:1; for Observed Luciferase Expression (RLU) for Given Formulation Mass Ratio 3.5:1: 2% (w/w) DMG-PEG2000, peptoid:mRNA 3.5:1; for Observed Luciferase Expression (RLU) for Given Formulation Mass Ratio 5:1: 2% (w/w) DMG-PEG2000, peptoid:mRNA 5:1; for Observed Luciferase Expression (RLU) for Given Formulation Mass Ratio 7.5:1: 2% (w/w) DMG-PEG2000, peptoid:mRNA 7.5:1
# Protocol: The charge ratio dependence of amino lipidated peptoid delivery vehicles was evaluated by formulating particles between Fluc mRNA and delivery vehicles at varying mass ratios. Formulations were varied between 2:1 and 7.5:1 peptoid:mRNA (w/w) ratios (2:1, 3.5:1, 5:1 and 7.5:1). In addition, the role of DMG-PEG2000 was also explored with the mass ratios, either by excluding DMG-PEG2000 or incorporating DMG-PEG2000 at 2% (w/w) relative to amino lipidated peptoid. Fluc expression from these formulations was measured in HeLa cells following treatment for 24 hours. […] FIGS. 6B and 6C show plots of the average bioluminescence (RLU) for HeLa cells treated with the formulations of exemplary amino lipidated cationic peptoid compounds 1-36, all formulated with 2% w/w DMG-PEG2000.
# [5] = MTT viability assay after treatment with Fluc mRNA/amino lipidated peptoid formulations; format: cell-based; settings: human, HeLa cells
# In short: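 Formulations (peptoid:mRNA 5:1 mass ratio, 2% w/w DMG-PEG2000) were applied at 100 ng Fluc mRNA per well for 8 h, followed by 48 h of growth. Cells then received 1.5 mg/mL MTT for 2 h, and formazan signal was normalized to untreated cells.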
# [6] = no PEG, peptoid:Fluc mRNA 5:1 w/w, 100 ng/well, 6 h of treatment
# [7] = no PEG, peptoid:Fluc mRNA 5:1 w/w, 100 ng/well, 24 h of treatment
# [8] = with 2% (w/w) DMG-PEG2000, peptoid:mRNA 5:1, 6 h after treatment
# [9] = with 2% (w/w) DMG-PEG2000, peptoid:mRNA 5:1, 24 h after treatment
Structure (SMILES),Size PDI [1],Size (nm) [1] [nm],% Encapsulation [2] [%],Luciferase Expression (RLU) 6 h (HeLa cells [3]; [6]) [RLU],Luciferase Expression (RLU) 24 h (HeLa cells [3]; [7]) [RLU],Luciferase Expression (RLU) 6 h (HeLa cells [3]; [8]) [RLU],Luciferase Expression (RLU) 24 h (HeLa cells [3]; [9]) [RLU],Observed Luciferase Expression (RLU) for Given Formulation Mass Ratio 2:1 (HeLa cells [4]) [RLU],Observed Luciferase Expression (RLU) for Given Formulation Mass Ratio 3.5:1 (HeLa cells [4]) [RLU],Observed Luciferase Expression (RLU) for Given Formulation Mass Ratio 5:1 (HeLa cells [4]) [RLU],Observed Luciferase Expression (RLU) for Given Formulation Mass Ratio 7.5:1 (HeLa cells [4]) [RLU],"viability at 8 h, 500 ng/well ([5]; Relative Viability (%) 2% PEG) [%]","viability at 8 h, 500 ng/well ([5]; Relative Viability (%) No PEG) [%]","viability at 8 h, 500 ng/well ([5]; MTT, 2% (w/w) DMG-PEG2000, 5:1 mass ratio, 100 ng/well mRNA for 8 h then 48 h growth, normalized to untreated cells, read-out: Relative Viability (%) 2% PEG) [%]","viability at 8 h, 500 ng/well ([5]; MTT, formulation alone (no PEG), 5:1 mass ratio, 100 ng/well mRNA for 8 h then 48 h growth, normalized to untreated cells, read-out: Relative Viability (%) No PEG) [%]"
CCCCCCCCCCN(CC(N)=O)C(=O)CN(CCCCCCCCCC)C(=O)CN(CCCCCCCCCC)C(=O)CN(CCCCCCCCCC)C(=O)CN(CCCCCCCCCC)C(=O)CN(CCc1ccccc1)C(=O)CN(CCc1ccccc1)C(=O)CN(CCN)C(=O)CN(CCc1ccccc1)C(=O)CN(CCc1ccccc1)C(=O)CNCCN [Compound 20],0.37,326.6,72.2,9.91E+03,1.55E+04,1.75E+04,1.36E+04,1.31E+03,2.47E+04,1.31E+04,2.27E+04,93,87.1,,
CCCCCCCCCCN(CC(N)=O)C(=O)CN(CCc1ccccc1)C(=O)CN(CCc1ccccc1)C(=O)CN(CCN)C(=O)CN(CCc1ccccc1)C(=O)CN(CCc1ccccc1)C(=O)CN(CCN)C(=O)CN(CCc1ccccc1)C(=O)CN(CCc1ccccc1)C(=O)CNCCN [Compound 6],0.348,448.6,92.4,4.30E+01,3.60E+01,1.38E+02,2.13E+01,8.18E+01,8.18E+01,6.97E+01,4.56E+01,,,88.9,88
CCCCCCCCCCN(CC(N)=O)C(=O)CN(CCCCCCCCCC)C(=O)CN(CCCCCCCCCC)C(=O)CN(CCCCCCCCCC)C(=O)CN(CCCCCCCCCC)C(=O)CN(CCCCCCCCCC)C(=O)CN(CCc1ccccc1)C(=O)CN(CCc1ccccc1)C(=O)CN(CCN)C(=O)CN(CCc1ccccc1)C(=O)CN(CCc1ccccc1)C(=O)CN(CCN)C(=O)CN(CCc1ccccc1)C(=O)CN(CCc1ccccc1)C(=O)CNCCN [Compound 22],0.538,748.2,65.4,6.63E+01,6.77E+01,9.23E+01,2.13E+01,3.53E+01,8.83E+01,2.50E+02,5.80E+02,118,104,,
CCCCCCCCCCN(CC(N)=O)C(=O)CN(CCCCCCCCCC)C(=O)CN(CCc1ccccc1)C(=O)CN(CCc1ccccc1)C(=O)CN(CCNC)C(=O)CN(CCc1ccccc1)C(=O)CN(CCc1ccccc1)C(=O)CN(CCNC)C(=O)CN(CCc1ccccc1)C(=O)CN(CCc1ccccc1)C(=O)CNCCNC [Compound 27],0.606,438.7,50.9,9.88E+02,7.40E+02,3.13E+02,6.36E+02,6.27E+03,8.40E+02,8.69E+02,6.41E+02,91.1,93.9,,
CCCCCCCCCCCCN(CC(N)=O)C(=O)CN(CCCCCCCCCCCC)C(=O)CN(CCc1ccc(OC)cc1)C(=O)CN(CCc1ccc(OC)cc1)C(=O)CN(CCN)C(=O)CN(CCc1ccc(OC)cc1)C(=O)CN(CCc1ccc(OC)cc1)C(=O)CN(CCN)C(=O)CN(CCc1ccc(OC)cc1)C(=O)CN(CCc1ccc(OC)cc1)C(=O)CNCCN [Compound 4],0.191,326.7,99.0,1.96E+02,1.13E+02,3.16E+02,3.09E+02,3.27E+03,1.32E+03,7.84E+03,1.14E+03,89.7,90.4,,
